{
  "source": "ChEMBL document CHEMBL5104233",
  "about": "“Advanced approaches of developing targeted covalent drugs” (RSC Med Chem, 2022)",
  "key": {"[1]": {"target": "Human immunodeficiency virus type 1 reverse transcriptase (Human immunodeficiency virus 1, UniProt Q72547, Y181C)", "assay": "Inhibition of HIV-1 reverse transcriptase Y181C mutant"}, "[2]": {"target": "T1, Cyclin-dependent kinase 2 (Homo sapiens, UniProt P24941)", "assay": "Inhibition of CDK2 (unknown origin)"}, "[3]": {"target": "T1, Cyclin-dependent kinase 2", "assay": "Inhibition of pan-CDK2 (unknown origin) relative to control", "conditions": "concentration not given here"}, "[4]": {"system": "CD4+ve Th", "assay": "Inhibition of Th1 cell differentiation in human peripheral blood CD4+ve Th cells assessed as decrease in IFNgamma production measured after 5 days", "type": "functional, cell-based", "conditions": "120 h"}, "[5]": {"system": "Jurkat", "assay": "Antiproliferative activity against human Jurkat cells assessed as inhibition of cell growth incubated for 72 hrs by Celltiter Glo assay", "type": "functional, cell-based"}, "[6]": {"target": "CDK7/Cyclin H/MNAT1 (Homo sapiens, UniProt P50613)", "sequence (P51946 whole entry)": "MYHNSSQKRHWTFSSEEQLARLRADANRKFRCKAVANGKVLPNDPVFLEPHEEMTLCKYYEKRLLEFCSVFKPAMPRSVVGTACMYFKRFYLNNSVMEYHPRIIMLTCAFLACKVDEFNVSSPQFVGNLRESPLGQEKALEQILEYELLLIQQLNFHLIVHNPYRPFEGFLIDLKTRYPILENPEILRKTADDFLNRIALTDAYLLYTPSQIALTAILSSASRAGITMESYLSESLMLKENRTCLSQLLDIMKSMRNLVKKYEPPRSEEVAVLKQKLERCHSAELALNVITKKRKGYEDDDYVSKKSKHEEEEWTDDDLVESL", "sequence (P50613 whole entry)": "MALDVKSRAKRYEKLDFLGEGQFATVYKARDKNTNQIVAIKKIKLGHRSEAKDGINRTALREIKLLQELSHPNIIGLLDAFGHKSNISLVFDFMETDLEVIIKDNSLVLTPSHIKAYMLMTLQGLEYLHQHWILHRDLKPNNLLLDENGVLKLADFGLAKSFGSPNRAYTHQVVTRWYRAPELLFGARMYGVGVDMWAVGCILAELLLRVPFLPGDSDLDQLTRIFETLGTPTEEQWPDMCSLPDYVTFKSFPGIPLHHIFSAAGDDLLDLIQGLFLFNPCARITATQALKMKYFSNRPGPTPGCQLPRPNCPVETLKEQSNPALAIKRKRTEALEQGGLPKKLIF", "sequence (P51948 whole entry, further chain)": "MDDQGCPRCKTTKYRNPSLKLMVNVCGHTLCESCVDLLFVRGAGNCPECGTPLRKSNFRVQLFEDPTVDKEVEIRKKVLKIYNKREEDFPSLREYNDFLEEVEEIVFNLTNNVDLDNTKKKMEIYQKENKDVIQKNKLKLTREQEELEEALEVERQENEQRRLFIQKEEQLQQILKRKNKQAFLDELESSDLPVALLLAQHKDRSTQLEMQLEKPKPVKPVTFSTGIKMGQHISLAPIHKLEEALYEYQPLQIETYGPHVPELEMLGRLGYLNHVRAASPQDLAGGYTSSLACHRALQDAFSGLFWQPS", "assay": "Inhibition of CDK7/Cyclin H/MAT1 (unknown origin) in leukemia cells", "type": "cell-based, Leukemia cell"}},
  "data": [
    {"compound": "C=CC(=O)N(C)c1cc(Oc2ccccc2OCCn2ccc(=O)[nH]c2=O)c(C)c2cc(C#N)ccc12", "values": [
      {"measurement": "IC50", "setting": "[1]", "result": 400, "unit": "nM"}
    ]},
    {"compound": "Cc1c(Oc2ccccc2OCCn2ccc(=O)[nH]c2=O)cc(N(C)C(=O)CCl)c2ccc(C#N)cc12", "values": [
      {"measurement": "IC50", "setting": "[1]", "result": 480, "unit": "nM"}
    ]},
    {"compound": "C=CS(=O)(=O)c1ccc(Nc2nc(OCC3CCCCC3)c3nc[nH]c3n2)cc1", "values": [
      {"measurement": "IC50", "setting": "[2]", "result": 160, "unit": "nM"},
      {"measurement": "inhibition", "setting": "[3]", "result": 50, "unit": "%"}
    ]},
    {"compound": "C=CC(=O)N1C[C@H](Nc2ncnc3[nH]ccc23)CC[C@@H]1C", "note": "[RITLECITINIB]", "values": [
      {"measurement": "IC50", "setting": "[4]", "result": 48, "unit": "nM"}
    ]},
    {"compound": "CN(C)C/C=C/C(=O)Nc1ccc(C(=O)N2CCC[C@H](Nc3ncc(Cl)c(-c4c[nH]c5ccccc45)n3)C2)cc1", "values": [
      {"measurement": "IC50", "setting": "[5]", "result": 50, "unit": "nM"}
    ]},
    {"compound": "C=C(F)C(=O)N1CCN(c2nc(OC[C@@H]3CCCN3C)nc3c2CCN(c2cccc4cccc(Cl)c24)C3)C[C@@H]1CC#N", "note": "[ADAGRASIB]", "values": [
      {"measurement": "IC50", "setting": "[6]", "result": 1.3, "unit": "nM"}
    ]}
  ]
}
